Experimental data taken from patent US12404289B2 (Gilead Sciences, Inc., priority 2020, dated 2025).
Where two headings read alike, the source gives them in different places.

Tests used:
Format in all cases: cell-based
[1] = test system: Respiratory syncytial virus recombinant with luciferase (RSV-Luc5); experiment: microbe, parasite or virus in culture; details: Table 3
SARS-CoV-2 = SARS-CoV-2 antiviral assay (A549-hACE2, Nano luciferase); details: A549-hACE2 cells, SARS-CoV2-Nano, MOI 0.025, 48 h, Table 4, read-out: EC50 SARS CoV2
[2] = test system: Recombinant respiratory syncytial virus expressing the firefly luciferase protein (RSV-Fluc); experiment: microbe, parasite or virus in culture; details: human respiratory syncytial virus, NHBE, 72 h, read-out: EC50 RSVFluc NHBE 96, NHBE cells, RSV-Fluc, MOI of 0.1, three days, 96 well; Table 4
[3] = test system: Respiratory syncytial virus (RSV) strain A2; experiment: RSV antiviral assay (HEp-2, 96 well); details: read-out: EC50 RSV HEP2 96; HEp-2 cells, RSV A2, MOI=4, 4 days, 96 well; Table 3
[4] = test system: Respiratory syncytial virus (RSV) strain A2; experiment: Hep-2 RSV2 384-well assay (EC50-HEP2-384); details: human respiratory syncytial virus, HEp-2, 96 h, HEp-2 cells, RSV A2, MOI=4, 4 days, Table 3
[5] = human respiratory syncytial virus, HEp-2, 72 h, read-out: EC50 RSVFluc-Hep2 384, HEp-2 cells, RSV-Luc5, MOI=0.5, 3 days, 384 well
[6] = Severe acute respiratory syndrome coronavirus 2, 48 h
[7] = read-out: EC50 RSVFluc-Hep2 384, HEp-2 cells, RSV-Luc5, MOI=0.5, 3 days, 384 well

SMILES	EC50 [1, 5] [nM]	EC50 [1, 7] [nM]	also measured
CCC(CC)COC(=O)[C@H](C)NP(=O)(OC[C@H]1O[C@@](C#N)(c2ccc3c(N)ncnn23)[C@H](OC(=O)C(C)C)[C@@H]1OC(=O)C(C)C)Oc1ccc(C(C)(C)C)c2ccccc12 (single isomer, unassigned) [Example 173a]	822		EC50 (SARS-CoV-2; [6]): 10000 nM
CCC(CC)COC(=O)[C@H](C)NP(=O)(OC[C@H]1O[C@@](C#N)(c2ccc3c(N)ncnn23)[C@H](OC(C)=O)[C@@H]1OC(C)=O)Oc1ccc(C(C)(C)C)c2ccccc12 (single isomer, unassigned) [Example 171b]		537	EC50 (SARS-CoV-2): 415 nM
CCC(CC)COC(=O)[C@H](C)NP(=O)(OC[C@H]1O[C@@](C#N)(c2ccc3c(N)ncnn23)[C@H](O)[C@@H]1O)Oc1ccc(C(C)(C)C)c2ccccc12 (stereo partly drawn) [Example 170, 2-ethylbutyl ((((2R,3S,4R,5R)-5-(4-aminopyrrolo[2,1-f][1,2,4]triazin-7-yl)-5-cyano-3,4-dihydroxytetrahydrofuran-2-yl)methoxy)((4-(tert-butyl)naphthalen-1-yl)oxy)phosphoryl)-L-alaninate]	1010		
CCC(CC)COC(=O)[C@H](C)NP(=O)(OC[C@H]1O[C@@](C#N)(c2ccc3c(N)ncnn23)[C@H](O)[C@@H]1O)Oc1ccc(C(C)(C)C)c2ccccc12 (single isomer, unassigned) [Example 170a]	1420		EC50 (SARS-CoV-2; [6]): 960 nM
C[C@H](NP(=O)(OC[C@H]1O[C@@](C#N)(c2ccc3c(N)ncnn23)[C@H](O)[C@@H]1O)Oc1ccc(Cl)cc1)C(=O)OC1CCCCCCC1 (single isomer, unassigned) [Example 174a]		7.09	
C[C@H](NP(=O)(OC[C@H]1O[C@@](C#N)(c2ccc3c(=N)n(COP(=O)(O)OCc4ccccc4)cnn23)[C@H](O)[C@@H]1O)Oc1cccc2ccccc12)C(=O)OC1CC2(CCC2)C1 (stereo partly drawn) [Example 176, spiro[3.3]heptan-2-yl ((((2R,3S,4R,5R)-5-(3-((((benzyloxy)(hydroxy)phosphoryl)oxy)methyl)-4-imino-3,4-dihydropyrrolo[2,1-f][1,2,4]triazin-7-yl)-5-cyano-3,4-dihydroxytetrahydrofuran-2-yl)methoxy)(naphthalen-1-yloxy)phosphoryl)-L-alaninate]	153		
CCC(CC)COC(=O)[C@H](C)NP(=O)(OC[C@H]1O[C@@](C#N)(c2ccc3c(N)ncnn23)[C@H](OC(=O)C(C)C)[C@@H]1OC(=O)C(C)C)Oc1ccc(C(C)(C)C)c2ccccc12 (single isomer, unassigned) [Example 173b]		765	
CCC(CC)COC(=O)[C@H](C)NP(=O)(OC[C@H]1O[C@@](C#N)(c2ccc3c(N)ncnn23)[C@H](OC(=O)C(C)C)[C@@H]1OC(=O)C(C)C)Oc1ccc(C(C)(C)C)c2ccccc12 (stereo partly drawn) [Example 173, (2R,3R,4R,5R)-2-(4-aminopyrrolo[2,1-f][1,2,4]triazin-7-yl)-5-(((((4-(tert-butyl)naphthalen-1-yl)oxy)(((S)-1-(2-ethylbutoxy)-1-oxopropan-2-yl)amino)phosphoryl)oxy)methyl)-2-cyanotetrahydrofuran-3,4-diyl bis(2-methylpropanoate)]	798		
CCC(=O)O[C@H]1[C@@H](OC(=O)CC)[C@](C#N)(c2ccc3c(N)ncnn23)O[C@@H]1COP(=O)(N[C@@H](C)C(=O)OCC(CC)CC)Oc1ccc(C(C)(C)C)c2ccccc12 (single isomer, unassigned) [Example 172a]	750		
C[C@H](NP(=O)(OC[C@H]1O[C@@](C#N)(c2ccc3c(N)ncnn23)[C@H](O)[C@@H]1O)Oc1ccc(Cl)cc1)C(=O)OC1CCCCCCC1 (single isomer, unassigned) [Example 174b]		62.8	
CCC(=O)O[C@H]1[C@@H](OC(=O)CC)[C@](C#N)(c2ccc3c(N)ncnn23)O[C@@H]1COP(=O)(N[C@@H](C)C(=O)OC1CC2(CCC2)C1)Oc1cccc2ccccc12 (single isomer, unassigned) [Example 87b]			EC50 [2]: 7.36 nM; EC50 [3]: 8.3 nM; EC50 (SARS-CoV-2): 16.3 nM; EC50 [4]: 44.9 nM
